Assay results taken from US6849663B2, “2-Aminotetralines, a process for their preparation, and pharmaceutical compositions, for the prevention and therapeutic treatment of inflammatory and/or autoimmune pathologies” (Sigma-Tau Industrie Farmaceutiche Riunite S.p.A., priority 1997, dated 2005).
Where “and” joins values, the source holds several entries; their conditions need not be identical. Identical values can stand only once. Counter-ions that a name gives are not always drawn. Like-named read-outs stand apart in the source and are kept apart here.

What was measured:
[1] = tested on: S. typhosa LPS; set-up: species or system mice; settings: mouse, in vivo; for Survival increase (%): iv
[2] = tested on: E. coli LPS; set-up: species or system mice; settings: mouse, in vivo
[3] = tested on: TNF; assay: Serum TNF after Salmonella typhosa LPS in mice; type: in vivo; settings: 6 mg/kg i.v., −30/+5 min schedule, LPS control 154.2
Experimental: Animals were treated intraperitoneally (i.p.) with S. typhosa LPS. Prior to use, the endotoxin was first dissolved in sterile saline and then injected in a volume of 200 μL, at the dose of 27.0 mg/kg, corresponding to about the LD80.
The compounds tested were administered intravenously (i.v.) in a volume of 200 μL of sterile saline at the dose approximately corresponding to 1/10 LD50, 30 min before and again 5 min after the endotoxic challenge (LPS).
In both experimental models, blood samples were taken 90 min after the challenge (peak serum TNF level).
Ether-anaesthetised mice were bled by retro-orbital sinus puncture.
Blood samples were incubated at room temperature for 2 h and the serum thus obtained was centrifuged for 20 min at 3000 rpm and stored at −80° C. pending TNF assay.
TNF biological activity was determined in RPMI medium containing 1% FCS.
50 μL/well of serial dilutions of samples containing TNF were added directly to the Primaria microtiter plates.
The experimental conditions utilised were the same as those previously described.
Data were analysed statistically using the one-tailed Student's t test.

[4] = tested on: SEB (Staphylococcus aureus) enterotoxin; set-up: species or system mice; settings: mouse, in vivo
[5] = tested on: TNF; assay: TNF production induced by LPS in rat blood culture; type: cell-based
[6] = tested on: TNF; set-up: species or system mice; settings: mouse, in vivo
[7] = tested on: TNF; set-up: species or system mice; settings: mouse, in vivo; remark: listed apart in the source
[8] = tested on: IL-1β; set-up: species or system mice; settings: mouse, in vivo
[9] = tested on: IL-6; set-up: species or system mice; settings: mouse, in vivo
[10] = tested on: IFN-γ; set-up: species or system mice; settings: mouse, in vivo

| Compound | Dead/Total [1] | Survival increase (%) [1] | Dead/Total [2] | Survival increase (%) ([2]; iv) | effect on lethality (in words) [1] | Dead/Total [4] | Survival increase (%) ([4]; iv) | other results |
| --- | --- | --- | --- | --- | --- | --- | --- | --- |
| COc1cc2c(cc1F)CC[C@@H](N)C2 (racemic) [ST 626, (R,S)-2-amino-6-fluoro-7-methoxytetraline hydrochloride, reference compound] | 6/20 | +40% | 21/28 | +11% | – | – | – | TNF (U/mL) Mean [3]: 35.0 U/mL |
| CC(=O)c1cc2c(cc1C)CC[C@@H](N)C2.Cl (racemic) [ST 1274, (R,S)-7-acetyl-2-amino-6-methyltetraline hydrochloride] | 10/20 | +40% | 5/10 | – | significantly reduce the lethality | 0/10 | +90% | – |
| Cc1cc2c(cc1F)CC[C@@H](N)C2.Cl (racemic) [ST 1275, (R,S)-2-amino-6-fluoro-7-methyltetraline hydrochloride] | 6/10 | +40% | 5/10 | – | significantly reduce the lethality | 1/10 | +80% | – |
| Cl.N[C@@H]1CCc2cc(F)c(O)cc2C1 [ST 1238, R(+)-2-amino-6-fluoro-7-hydroxytetraline hydrochloride] | – | – | – | +60% | – | – | +70% | Survival increase (%) [2]: +44%; effect on lethality (in words) [2]: significantly reduces the lethality; Dead/Total ([2]; hydrochloride): 5/20 and 7/19; Survival increase (%) [4]: +70%; protective effect (in words) [4]: extremely significant protective effect; Dead/Total ([4]; hydrochloride): 1/20 and 4/20; TNF (mean % values) [5]: 61%; reduction of TNF production ([5]; rat blood cultures stimulated with LPS, compound 50 μM): 39%; effect on TNF levels (in words) [6]: significantly reduces TNF levels; TNF (U/mL) Mean [7]: 6.2 U/mL; TNF (U/mL) mean [7]: 27.0 U/mL; effect on TNF production (in words) [7]: significantly reduces TNF production; IL-1β (pg/mL) Mean [8]: 0.9 pg/mL; IL-6 (pg/mL) Mean [9]: 599 pg/mL; effect on IL-6 production (in words) [9]: significantly reduces the production; IFN-γ (pg/mL) Mean [10]: 25 pg/mL; effect on IFN-γ production (in words) [10]: significantly reduces the production |
